Assay results published in patent US20150141435A1, “2-PYRIDONE ANTIMICROBIAL COMPOSITIONS” (Emergent BioSolutions, priority 2010, published 2015).
Structures can show the parent of a compound that is named as a salt. Where two headings read alike, the source gives them in different places.

What was measured:
Format in all cases: cell-based
S. aureus ATCC 25923 = test: MIC, CLSI broth microdilution (Table 1); conditions: Staphylococcus aureus
S. pneumonia ATCC 49619 = test: MIC, CLSI broth microdilution (Table 1); conditions: Streptococcus pneumoniae
[1] = tested on: Francisella tularensis Schu S4; test: microbe, parasite or virus in culture; conditions: SCHUS4
[2] = tested on: S. maltophilia ATCC 17677; test: MIC, CLSI broth microdilution (Table 2); conditions: Stenotrophomonas maltophilia
E. faecium ATCC 19434 = test: MIC, CLSI broth microdilution (Table 1); conditions: Enterococcus faecium
A. baumannii ATCC 19606 = test: MIC, CLSI broth microdilution (Table 2); conditions: Acinetobacter baumannii
[3] = tested on: Burkholderia pseudomallei ATCC 23343; test: microbe, parasite or virus in culture; conditions: ATCC23343
[4] = tested on: S. aureus BAA-1720 (MRSA, FQ-R); test: MIC, CLSI broth microdilution (Table 1); conditions: Staphylococcus aureus, read-out: MIC S. aureus BAA-1720 (MRSA, FQ-R)
E. faecalis ATCC 29212 = test: MIC, CLSI broth microdilution (Table 1); conditions: Enterococcus faecalis
Yersinia pestis C092 = test: microbe, parasite or virus in culture
[5] = tested on: S. aureus ATCC 43300 (MRSA, FQ-S); test: MIC, CLSI broth microdilution (Table 1); conditions: Staphylococcus aureus, read-out: MIC S. aureus ATCC 43300 (MRSA, FQ-S)
[6] = tested on: Bacillus anthracis Ames strain; test: microbe, parasite or virus in culture
P. aeruginosa ATCC 27853 = test: MIC, CLSI broth microdilution (Table 2); conditions: Pseudomonas aeruginosa
K. pneumoniae ATCC 33495 = test: MIC, CLSI broth microdilution (Table 2); conditions: Klebsiella pneumoniae
[7] = tested on: Brucella abortus ATCC 23448; test: microbe, parasite or virus in culture; conditions: ATCC23448
[8] = tested on: Burkholderia mallei ATCC 23344; test: microbe, parasite or virus in culture; conditions: ATCC23344
E. coli ATCC 25922 = test: MIC, CLSI broth microdilution (Table 2); conditions: Escherichia coli
H. influenzae ATCC 49247 = test: MIC, CLSI broth microdilution (Table 2); conditions: Haemophilus influenzae
[9] = ATCC25923, read-out: MIC S. aureus ATCC 25923
[10] = ATCC49619, read-out: MIC S. pneumonia ATCC 49619
[11] = ATCC17677, read-out: MIC S. maltophilia ATCC 17677
[12] = ATCC19434, read-out: MIC E. faecium ATCC 19434
[13] = ATCC19606, read-out: MIC A. baumannii B. ATCC 19606
[14] = ATCC29212, read-out: MIC E. faecalis ATCC 29212
[15] = ATCC27853, read-out: MIC P. aeruginosa ATCC 27853
[16] = ATCC33495, read-out: MIC K. pneumoniae ATCC 33495
[17] = ATCC25922, read-out: MIC E. coli ATCC 25922
[18] = ATCC49247, read-out: MIC H. influenzae ATCC 49247
[19] = ATCC25923, Gram positive, MHB, 37° C., 16-20 hours, read-out: MIC S. aureus ATCC 25923
[20] = ATCC19434, Gram positive, MHB, 37° C., 16-20 hours, read-out: MIC E. faecium ATCC 19434
[21] = Gram positive, MHB, 37° C., 16-20 hours
[22] = ATCC29212, Gram positive, MHB, 37° C., 16-20 hours, read-out: MIC E. faecalis ATCC 29212
[23] = ATCC27853, Gram negative, MHB, 37° C., 16-20 hours, read-out: MIC P. aeruginosa ATCC 27853
[24] = ATCC25922, Gram negative, MHB, 37° C., 16-20 hours, read-out: MIC E. coli ATCC 25922
[25] = ATCC49247, Gram negative, MHB, 37° C., 16-20 hours, read-out: MIC H. influenzae ATCC 49247
[26] = ATCC49619, Gram positive, MHB, 37° C., 16-20 hours, read-out: MIC S. pneumonia ATCC 49619
[27] = ATCC17677, Gram negative, MHB, 37° C., 16-20 hours, read-out: MIC S. maltophilia ATCC 17677
[28] = ATCC19606, Gram negative, MHB, 37° C., 16-20 hours, read-out: MIC A. baumannii B. ATCC 19606
[29] = ATCC33495, Gram negative, MHB, 37° C., 16-20 hours, read-out: MIC K. pneumoniae ATCC 33495

Row | Compound | MIC (S. pneumonia ATCC 49619; [10]) [µg/mL] | MIC [1] [µg/mL] | MIC [2, 11] [µg/mL] | MIC (A. baumannii ATCC 19606; [13]) [µg/mL] | MIC [3] [µg/mL] | MIC (Yersinia pestis C092) [µg/mL] | MIC [6] [µg/mL] | MIC (K. pneumoniae ATCC 33495; [16]) [µg/mL] | MIC (S. aureus ATCC 25923; [19]) [µg/mL] | MIC (E. faecium ATCC 19434; [20]) [µg/mL] | MIC [4, 21] [µg/mL] | MIC (E. faecalis ATCC 29212; [22]) [µg/mL] | MIC [5, 21] [µg/mL] | MIC (P. aeruginosa ATCC 27853; [23]) [µg/mL] | MIC (E. coli ATCC 25922; [24]) [µg/mL] | MIC (H. influenzae ATCC 49247; [25]) [µg/mL] | MIC (S. pneumonia ATCC 49619; [26]) [µg/mL] | MIC [2, 27] [µg/mL] | MIC (A. baumannii ATCC 19606; [28]) [µg/mL] | MIC (K. pneumoniae ATCC 33495; [29]) [µg/mL] | other results
1 | Cc1c(-c2ccc(N)nc2)ccn2c(=O)c(C(=O)O)cc(C3CC3)c12 [Example 21 K salt, 8-(6-amino-pyridin-3-yl)-1-cyclopropyl-9-methyl-4-oxo-4H-quinolizine-3-carboxylic acid] | 0.032 | 0.031 | 0.125 | 0.064 to 0.125 | 0.25 to 0.5 | 0.031 | 0.016 | 0.064 |  |  |  |  |  |  |  |  |  |  |  |  | MIC (S. aureus ATCC 25923; [9]): 0.008 µg/mL; MIC (E. faecium ATCC 19434; [12]): 0.5 µg/mL; MIC [4]: 0.25 µg/mL; MIC (E. faecalis ATCC 29212; [14]): 0.032 µg/mL; MIC [5]: 0.008 µg/mL; MIC (P. aeruginosa ATCC 27853; [15]): 1 to 2 µg/mL; MIC [7]: 0.063 µg/mL; MIC [8]: 0.125 to 0.25 µg/mL; MIC (E. coli ATCC 25922; [17]): 0.016 to 0.032 µg/mL; MIC (H. influenzae ATCC 49247; [18]): ≤ 0.004 µg/mL
2 | Cc1c(-c2cc(F)c(N)cc2F)ccn2c(=O)c(C(=O)O)cc(C3CC3)c12 [Example 28 K salt, 8-(4-amino-2,5-difluoro-phenyl)-1-cyclopropyl-9-methyl-4-oxo-4H-quinolizine-3-carboxylic acid] | 0.032 | 0.008 | 0.125 | 0.125 | 0.125 | 0.016 to 0.031 | 0.004 | 0.25 to 0.5 |  |  |  |  |  |  |  |  |  |  |  |  | MIC (S. aureus ATCC 25923; [9]): ≤ 0.004 µg/mL; MIC (E. faecium ATCC 19434; [12]): 0.25 µg/mL; MIC [4]: 0.064 µg/mL; MIC (E. faecalis ATCC 29212; [14]): 0.016 µg/mL; MIC [5]: ≤ 0.004 µg/mL; MIC (P. aeruginosa ATCC 27853; [15]): 2 µg/mL; MIC [7]: 0.031 to 0.063 µg/mL; MIC [8]: 0.125 to 0.25 µg/mL; MIC (E. coli ATCC 25922; [17]): 0.032 to 0.064 µg/mL; MIC (H. influenzae ATCC 49247; [18]): ≤ 0.004 µg/mL
3 | Cc1c(-c2ccc(F)c(N)c2)ccn2c(=O)c(C(=O)O)cc(C3CC3)c12 [Example 8 K salt, 8-(3-amino-4-fluoro-phenyl)-1-cyclopropyl-9-methyl-4-oxo-4H-quinolizine-3-carboxylic acid] | 0.125 | 0.031 | 0.125 | 0.064 to 0.125 | 0.125 | 0.031 | 0.008 | 0.125 | 0.008 | 0.5 | 0.25 | 0.032 | 0.008 | 2 | 0.032 to 0.064 | 0.064 |  |  |  |  | MIC [7]: 0.063 µg/mL; MIC [8]: 0.25 µg/mL
4 | Cc1c(-c2ccc(N)c(F)c2)c(F)cn2c(=O)c(C(=O)O)cc(C3CC3)c12 [Example 1 K salt, 8-(4-amino-3-fluoro-phenyl)-1-cyclopropyl-7-fluoro-9-methyl-4-oxo-4H-quinolizine-3-carboxylic acid] | 0.016 | 0.016 | 0.125 | 0.064 | 0.5 | 0.031 | 0.004 | 0.125 |  |  |  |  |  |  |  |  |  |  |  |  | MIC (S. aureus ATCC 25923; [9]): ≤ 0.004 µg/mL; MIC (E. faecium ATCC 19434; [12]): 0.25 µg/mL; MIC [4]: 0.125 µg/mL; MIC (E. faecalis ATCC 29212; [14]): 0.008 µg/mL; MIC [5]: ≤ 0.004 µg/mL; MIC [7]: 0.031 µg/mL; MIC [8]: 0.25 to 0.5 µg/mL; MIC (E. coli ATCC 25922; [17]): 0.032 to 0.064 µg/mL; MIC (H. influenzae ATCC 49247; [18]): ≤ 0.004 µg/mL
5 | Cc1cc(-c2ccn3c(=O)c(C(=O)O)cc(C4CC4)c3c2C)c(Cl)cc1N [Example 30 K salt, 1-cyclopropyl-8-(4-amino-2-chloro-5-methyl-phenyl)-9-methyl-4-oxo-4H-quinolizine-3-carboxylic acid] |  |  |  |  |  |  |  |  | 0.064 | 2 | 1 | 0.064 | 0.032 | > 8 | 1 | 0.064 | 0.25 | 4 | 1 to 2 | 2 to 4 | 
6 | Cc1c(-c2ccc(N(C)C)cc2)ccn2c(=O)c(C(=O)O)cc(C3CC3)c12 [Example 25 K salt, 1-cyclopropyl-8-(4-(dimethylamino)-phenyl)-9-methyl-4-oxo-4H-quinolizine-3-carboxylic acid] |  |  |  |  |  |  |  |  | 0.064 | 8 | 1 | 0.125 | 0.064 | > 8 | 0.5 | 0.064 | 0.25 | 1 | 1 | 1 | 
7 | Cc1c(-c2ccc(F)cc2)ccn2c(=O)c(C(=O)O)cc(C3CC3)c12 [Example 44 K salt, 1-cyclopropyl-8-(4-fluoro-phenyl)-9-methyl-4-oxo-4H-quinolizine-3-carboxylic acid] |  |  |  |  |  |  |  |  | 0.016 | 0.5 | 0.5 | 0.064 | 0.016 | 2 | 0.125 | 0.008 | 0.25 | 0.25 | 0.125 to 0.25 | 0.25 | 
8 | Cc1c(-c2ccc(C#N)c(F)c2)ccn2c(=O)c(C(=O)O)cc(C3CC3)c12 [Example 40 K salt, 8-(4-cyano-3-fluoro-phenyl)-1-cyclopropyl-9-methyl-4-oxo-4H-quinolizine-3-carboxylic acid] |  |  |  |  |  |  |  |  | 0.016 | 2 | 0.5 to 1 | 0.064 | 0.016 | > 8 | 0.125 to 0.25 | 0.016 | 0.125 | 0.25 | 0.25 | 0.5 to 1 | 
9 | CC(=O)Nc1ccc(-c2ccn3c(=O)c(C(=O)O)cc(C4CC4)c3c2C)cc1 [Example 13 K salt, 8-(4-acetamido-phenyl)-1-cyclopropyl-9-methyl-4-oxo-4H-quinolizine-3-carboxylic acid] |  |  |  |  |  |  |  |  | 0.008 to 0.016 | 0.5 | 0.25 | 0.016 | 0.008 | 8 | 0.125 | 0.016 | 0.032 | 0.5 | 0.5 | 0.5 | 
10 | Cc1c(-c2ccncc2)ccn2c(=O)c(C(=O)O)cc(C3CC3)c12 [Example 16 K salt, 1-cyclopropyl-9-methyl-4-oxo-8-(pyridin-4-yl)-4H-quinolizine-3-carboxylic acid] | 0.125 | 0.016 to 0.031 | 0.125 | 0.125 | 0.125 | 0.031 | 0.016 | 0.125 |  |  |  |  |  |  |  |  |  |  |  |  | MIC (S. aureus ATCC 25923; [9]): 0.016 µg/mL; MIC [4]: 0.5 to 1 µg/mL; MIC (E. faecalis ATCC 29212; [14]): 0.064 µg/mL; MIC [5]: 0.016 µg/mL; MIC [7]: 0.063 µg/mL; MIC [8]: 0.125 µg/mL; MIC (E. coli ATCC 25922; [17]): 0.032 µg/mL; MIC (H. influenzae ATCC 49247; [18]): ≤ 0.004 µg/mL
11 | Cc1cc(-c2ccn3c(=O)c(C(=O)O)cc(C4CC4)c3c2C)ccc1N [Example 19 K salt, 8-(4-amino-3-methyl-phenyl)-1-cyclopropyl-9-methyl-4-oxo-4H-quinolizine-3-carboxylic acid] |  |  |  |  |  |  |  |  | 0.016 | 1 | 0.25 | 0.032 | 0.016 | 2 | 0.064 to 0.125 | 0.008 | 0.064 to 0.125 | 0.25 | 0.125 to 0.25 | 0.25 | 
